Peptide text beside a SMILES is read from it.
How the values were obtained:
[1] = ABTS free radical scavenging assay; format: physicochemical; conditions: concentration of 100 μM
Procedure: (1) ABTS free radical scavenging assay: Equal volumes of a 7 mmol/L ABTS aqueous solution and a 2.49 mmol/L potassium persulfate aqueous solution were mixed and left to stand in the dark for 12 h to obtain an ABTS free radical stock solution, which was stored at 4° C. When in use, the stock solution was diluted with 5 mmol/L PBS until the absorbance of the solution was 0.700±0.002 at 734 nm, and an ABTS free radical working solution was prepared. Separately, 10 μL of each of the aqueous solutions of derivative peptides with a concentration of 100 μM was added to a 96-well plate, while glutathione (GSH) of the same concentration was used as a control; these solutions reacted with 190 μL of ABTS free radical working solution accurately for 6 min, and absorbance values (A1) were measured at a wavelength of 734 nm using a microplate reader. The calculation formula for scavenging rate is as follows: […]
where A0 is the absorbance value that replaces the derivative peptide solution with distilled water;
A1 is the absorbance value of the solution adding a derivative peptide or GSH; and
A2 is the absorbance value of the solution using 5 mmol/L PBS instead of the ABTS free radical working solution.

[2] = Oxygen radical antioxidant capacity (ORAC) assay; format: physicochemical; conditions: 100 μM aqueous solutions
Procedure: (2) ORAC assay: (1) On a 96-well black plate, 25 μL each of PBS, Trolox standard solutions (12.5, 25, 50, and 100 μM) and aqueous solutions of five derivative peptides (100 μM) was added. The 96-well plate was placed and shaken in a microplate reader preheated for 30 min for 5 s, and incubated at 37° C. for 10 min. To each well, 150 μL each of FL working solution was added using a multi-channel pipette, and the plate was shaken for 5 s and incubated at 37° C. for 20 min. To each well, 25 μL each of AAPH was quickly added using the multi-channel pipette, and the plate was shaken for 5 s, followed by reading. The fluorescence intensity was continuously measured at an excitation wavelength of (485±20) nm and an emission wavelength of (530±20) nm. The whole system was held at 37° C., and the fluorescence intensity was measured every 2 min. Before each measurement, the well plate was shaken at a medium speed for 10 s, and the oscillation amplitude was 4 mm. The measurement was performed until the fluorescence intensity reached 5% of the initial fluorescence intensity (60 cycles were set in this assay). The relative fluorescence intensity is calculated by the area under the fluorescence decay curve (AUC) as follows: AUC=0.5×[2×(f0+f1 . . . +fn-1+fn)−f0−fn]×Δt
(1) In the formula, fn is the relative fluorescence intensity at the n-th measurement point; and Δt is the interval between adjacent time points, namely 2 min.
(2) The measurement results are expressed as ORAC values. The ORAC values of unknown samples are expressed in μmol TE/g. ORAC value=[(AUCSample−AUCBlank)/(AUCTrolox−AUCBlank)]×CTrolox/CSample.
Herein, AUCSample is the result of each of the aqueous solutions of five derivative peptides; AUCBlank is the result after adding 25 μL of PBS; AUCTrolox is the result after adding Trolox standard solution (100 μM); CTrolox is the molar concentration of Trolox, namely, 100 μM;
CSample is the molar concentration of each derivative peptide, calculated from the Trolox standard curve, where the Trolox standard curve is y=0.0756x+41.989, R^2=0.9931, the abscissa is the molar concentration of Trolox (12.5, 25, 50, or 100 μM), and the ordinate is AUCTrolox.

[3] = Acid-base stability testing (RP-HPLC peak area); format: physicochemical; conditions: 100 μM, pH 2, 4, 6, and 8, 37° C. for 2 h
Procedure: Acid-base Stability Testing (see FIG. 4B): • Step 1, the solid powder of derivative peptide WYSGK (SEQ ID NO: 4) was dissolved in distilled water to prepare a 100 μM solution, which was used as a blank group and stored at 4° C. for later use; • Step 2, the solid powder of derivative peptide WYSGK (SEQ ID NO: 4) was diluted with aqueous solutions with pH 2, 4, 6, and 8 to a concentration of 100 μmol/L, respectively, and the resulting solutions were incubated in a water bath at 37° C. for 2 h; • Step 3, the blank group and WYSGK (SEQ ID NO: 4) sample solutions at different pH were filtered through a 0.22 μm filter membrane; • Step 4, RP-HPLC was performed under the following conditions: detection wavelength: 220 nm; column temperature: 25° C.; mobile phase A: 100% acetonitrile+0.1% TFA; mobile phase B: 100% acetonitrile+0.1% TFA. Elution conditions were programmed as follows: 0-25 min, 10%-35% B (gradient elution); flow rate 1.0 mL/min; and • Step 5, the peak area in the liquid chromatogram was calculated to determine whether the derivative peptide WYSGK (SEQ ID NO: 4) was degraded at different pH (refer to Liu Xintong's method, Sci. Technol. Food Ind., Vol. 41, No. 19, 2020).

[4] = Simulated gastrointestinal digestion stability testing; format: in vitro ADME; conditions: pepsin up to 2 h then trypsin up to 2 h, 37° C.
Text: […]

[5] = Thermal stability testing (RP-HPLC peak area); format: physicochemical; conditions: 100 μM, pH 7.0, 20-100° C. water bath for 2 h
Procedure: Thermal Stability Testing (see FIG. 4A): • Step 1, the solid powder of derivative peptide WYSGK (SEQ ID NO:4) was dissolved in distilled water to prepare a 100 μM solution, the pH value was adjusted to 7.0, and the resulting solution was stored at 4° C. for later use; • Step 2, the derivative peptide WYSGK (SEQ ID NO: 4) solution in step 1 was divided into five tubes (1 mL/tube), and each tube was placed in a water bath at 20, 40, 60, 80, and 100° C. for 2 h; • Step 3, the blank group (the derivative peptide WYSGK (SEQ ID NO: 4) solution in step 1 without water bath treatment) and the derivative peptide WYSGK (SEQ ID NO:4) solution at each temperature were filtered through a 0.22 μm filter membrane; • Step 4, RP-HPLC was performed under the following conditions: detection wavelength: 220 nm; column temperature: 25° C.; mobile phase A: acetonitrile+0.1% (v/v) TFA; mobile phase B: acetonitrile+0.1% (v/v) TFA. Elution conditions were programmed as follows: 0-25 min, 10%-35% B (the value could be input in the liquid phase equipment); flow rate 1.0 mL/min; and • Step 5, the peak area in the liquid chromatogram was calculated to determine whether the derivative peptide WYSGK (SEQ ID NO:4) was degraded at different temperatures (refer to Liu Xintong's method, Sci. Technol. Food Ind., Vol. 41, No. 19, 2020).

[6] = system: scopolamine-induced memory impairment model mice; assay: Morris water maze (place navigation and probe trial); format: in vivo, Male C57BL/6N mice
Procedure: In vivo studies were performed in accordance with the Guide for the Care and Use of Laboratory Animals published by the […]. Male C57BL/6N mice weighing 25-30 g were purchased from Liaoning Changsheng Biotechnology Co., Ltd. (Benxi, China). Mice were housed at a stable temperature (22±1° C.) under a 12 h/12 h light/dark cycle. The mice were given access to standard diet and water ad libitum. […]
A circular pool for Morris water maze (1,200 mm in diameter) was filled with warm water at 20±2° C., while a platform (65 mm diameter) was hidden in the Southwest (SW) quadrant 1 cm below the water surface. A mouse was gently placed in the Northeast (NE) quadrant facing the pool wall, the swimming trajectory of the mouse was recorded by the image acquisition system, and the time was measured for 120 s. The time it took to find the platform in the SW quadrant within 120 s was recorded as the latency, while the mouse that reached the platform was allowed to sit on the platform for 10 s and then returned to the holding cage. […] Subsequently, the time from the mice being placed in the water to finding the platform was analyzed and calculated according to the data acquisition system (see FIG. 2A). […]
After the place navigation was completed, the platform hidden in the water was taken out. A mouse was gently placed in the Northeast (NE) quadrant facing the pool wall, the swimming trajectory of the mouse was recorded by the image acquisition system, and the time was measured for 90 s. According to the data acquisition system, the time spent in the target quadrant (see FIG. 2B) and the frequency of original platform crossing (see FIG. 2C) within 90 s were analyzed and calculated on the mouse. […]

N[C@@H](CCC(=O)N[C@@H](CS)C(=O)NCC(=O)O)C(=O)O [GSH, reduced glutathione, reference compound]
ABTS free radical scavenging rate [1]: 31.39% | ORAC value [2]: 995.58 μmol TE/g

NCCCC[C@H](NC(=O)CNC(=O)[C@H](CO)NC(=O)[C@H](Cc1ccc(O)cc1)NC(=O)[C@@H](N)Cc1c[nH]c2ccccc12)C(=O)O [WYSGK, Trp-Tyr-Ser-Gly-Lys] (H-WYSGK-OH; N-terminus and C-terminus assumed)
degradation at different pH (acid-base stability) [3]: hardly degraded | retention rate of peptide content [4]: at least 93.45% | degradation at different temperatures (thermal stability) [5]: hardly degraded

Trp-Tyr-Glu-Gly-Lys (WYEGK; derivative peptide)
ABTS free radical scavenging rate [1]: 54.48% | ORAC value [2]: 5,422.29 μmol TE/g

Trp-Tyr-Lys-Gly-Lys (WYKGK; derivative peptide)
ABTS free radical scavenging rate [1]: 40.31% | ORAC value [2]: 3,681.50 μmol TE/g

Trp-Tyr-Phe-Gly-Lys (WYFGK; derivative peptide)
ABTS free radical scavenging rate [1]: 36.56% | ORAC value [2]: 3,762.05 μmol TE/g

WYPGK: pine nut-derived antioxidant peptide, template for the derivative peptides (pine nut antioxidant peptide)
escape latency compared with the model group ([6]; place navigation, 5-day training, FIG. 2A): shorter escape latency | time spent in target quadrant compared with the model group ([6]; probe trial, within 90 s, FIG. 2B): significant decreases | frequency of original platform crossing compared with the model group ([6]; probe trial, within 90 s, FIG. 2C): significant decreases

Source: patent US11780880B2, “High-activity memory-improving derivative peptide and use thereof” (Jilin Agricultural University, priority 2021, dated 2023)
